Experiments:
[1] = tested on: skin of the upper lip (philtrum); assay: Cooling sensation bioassay, ointment applied to skin above the upper lip (philtrum) of test subjects; assay type: in vivo, human; details: for qualitative aspects of sensation (coolness and not cold, duration at least three hours): topical, philtrum method; for duration of action: applied to the skin of test subjects
Text: A reliable place for topical application is on the upper lip, above the vermillion border of the lips, on the philtrum, lateral to the philtrum until the nasolabial folds, and on the lower nostrils. This part of the face is known to be densely innervated with cold receptors, second only to the surface of eyeball. Tingling, cool and cold sensations may be experienced and rated for intensity. This test is quite accurate for predicting the cooling activity of candidate N-arylshydroxyalkylidene-cCarboxamide drugs, but most importantly, it also measures the duration of drug action on the sensory receptors. The duration of action is not measured in a receptor assay and is difficult to quantify on the tongue because of the dynamic fluid conditions in the oral cavity and the presence of taste factors that affect thermosensation.
For bioassay of […] on the skin, CPS-195 was stirred and dissolved in warm liquid Aquaphor® ointment to yield ointment concentrations of 0.25, 0.5, 1, and 2% wt/vol. After cooling, 50 to 80 mg of the solid ointment was placed on the tip of a plastic stick and applied to the skin above the upper lip, on the philtrum, and lateral to the philtrum up to the nasolabial folds, of test subjects and the onset and duration of cooling sensations recorded. Each of the compounds produce cooling on the skin of the upper lip with duration of action of more than 1 hour.
The intensity of the subjective skin sensation is rated as 0, 1, 2 or 3 with 0 as no change, 1 as slight coolness, cold, or tingling, 2 as clear cut signal of coolness, cold, or tingling, and 3 as robust cooling or cold. The interval for recording sensations is at 5 minute intervals, until two successive zeroes are obtained. The results are averaged values of 4 to 6 separate trials in the same individual. The data were plotted using SigmaPlot (Systat Software, Point Richmond Calif.) and a smoothing function with a negative exponential was used for analysis and statistical fit of the results.
The onset of drug action was taken as the time to reach 2 units of coolness intensity, and offset of drug action was the time when coolness intensity drops below 1.5, after previously surpassing 2 units. The duration of cooling action was defined as the offset time minus the onset time, which in this case averaged 2 minutes. The quality of the sensation was also noted, such as refreshing coolness, cold, or if the sensation was accompanied by irritation (stinging or burning). The quality of the sensation was not rated for intensity.

oral cavity = assay: Cooling sensation after placement on the dorsal surface of the tongue; assay type: in vivo, human
Experimental: The onset of cooling was 3 to 5 minutes, but once the effect was established, the entire oral cavity and pharyngeal surfaces (oro-, laryngo- and naso-pharynx) felt cool.
CPS-195 was formulated as a 3% wt/wt tablet in Ludipress®, a rapidly disintegrating direct compression excipient made by BASF Corp. The tablet size was 60 mg so each unit contained 1.8 mg of CPS-195. […] For example, applied onto the mucous membranes of the oral cavity it can soothe the discomforts of pharyngitis/laryngitis, oral mucositis, oral ulcers, and idiopathic facial pain. In the pharynx and upper airways, CPS-195 may be used to reduce or to treat cough, asthma, and chronic obstructive pulmonary disease. On the skin, CPS-195 can be used to treat the discomfort of severe acne, eczema, diabetic ulcers, and the like.

TRP-M8 receptor = biological target: T1, TRP-M8 receptor (Homo sapiens, UniProt Q7Z2W7); assay: TRP-M8 receptor assay; assay type: cell-based
T1 construct: expressed in transfected cells
T1 sequence (Q7Z2W7 whole entry): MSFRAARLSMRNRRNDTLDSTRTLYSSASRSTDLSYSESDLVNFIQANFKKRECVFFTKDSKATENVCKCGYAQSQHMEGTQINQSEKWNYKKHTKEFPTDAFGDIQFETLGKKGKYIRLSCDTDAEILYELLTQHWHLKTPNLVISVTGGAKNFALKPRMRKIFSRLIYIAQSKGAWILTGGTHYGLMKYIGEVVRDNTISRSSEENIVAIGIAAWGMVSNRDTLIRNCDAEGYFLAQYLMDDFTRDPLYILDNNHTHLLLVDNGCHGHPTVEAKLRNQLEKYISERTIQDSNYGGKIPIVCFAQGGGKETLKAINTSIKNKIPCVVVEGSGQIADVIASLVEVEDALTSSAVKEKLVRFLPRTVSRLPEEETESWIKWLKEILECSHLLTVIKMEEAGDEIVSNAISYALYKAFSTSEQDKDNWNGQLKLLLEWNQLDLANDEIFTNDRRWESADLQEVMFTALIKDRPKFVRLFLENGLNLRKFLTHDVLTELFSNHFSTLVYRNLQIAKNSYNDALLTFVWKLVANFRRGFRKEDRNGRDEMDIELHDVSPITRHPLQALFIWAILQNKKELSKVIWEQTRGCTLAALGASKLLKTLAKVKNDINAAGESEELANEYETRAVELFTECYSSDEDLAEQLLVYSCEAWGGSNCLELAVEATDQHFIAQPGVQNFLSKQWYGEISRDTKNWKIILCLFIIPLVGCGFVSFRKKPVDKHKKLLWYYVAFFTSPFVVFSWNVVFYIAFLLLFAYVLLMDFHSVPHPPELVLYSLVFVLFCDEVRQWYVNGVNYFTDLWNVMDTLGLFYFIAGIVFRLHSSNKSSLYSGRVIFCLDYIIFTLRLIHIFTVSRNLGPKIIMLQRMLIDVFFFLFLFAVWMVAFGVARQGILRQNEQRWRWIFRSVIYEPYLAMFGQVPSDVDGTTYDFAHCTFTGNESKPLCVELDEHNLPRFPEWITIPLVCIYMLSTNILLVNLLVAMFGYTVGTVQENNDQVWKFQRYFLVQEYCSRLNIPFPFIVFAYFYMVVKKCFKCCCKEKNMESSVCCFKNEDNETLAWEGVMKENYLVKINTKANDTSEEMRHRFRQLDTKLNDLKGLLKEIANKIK
Text: Pain was defined by Sir Charles Sherrington as “the psychic adjunct of an imperative protective reflex”. Psychic events such as cooling, irritation, itch, and pain cannot be expressed by animals (animals cannot say “ouch” or that “it itches”) so the sensory effects of chemicals must be indirectly inferred. Receptor assays, based on cells transfected with the gene for TRP-M8 or TRP-A1, may be used as a model of sensory processes. […] But, as noted below, these assays give no information on how long and for what quality of sensations is occurring on human subjects. The best information on the pharmacological properties of these chemicals must therefore be derived from human experiment.
The sensations are more cold than cool, and have the sting and harshness of high concentrations of menthol. […] CPS-112 was therefore a disappointment in spite of its high potency on the receptor assay.

[2] = 2 mg on the dorsal surface of the tongue

CC(C)[C@@H]1CC[C@@H](C)C[C@H]1C(=O)Nc1ccc(S(=O)(=O)Nc2ncccn2)cc1 [CPS-125]
qualitative aspects of sensation (coolness and not cold, duration at least three hours) [1]: met

CC(C)[C@@H]1CC[C@@H](C)C[C@H]1C(=O)N(C)CC(O)c1cccc(O)c1 (stereo in doubt) [CPS-195, 2-isopropyl-5-methyl-cyclohexanecarboxylic acid (2′-hydroxy-2′-[3″-hydroxy-phenyl]-ethyl)-N-methyl-amide]
duration of action (coolness and cold on skin of the upper lip) ([1]; 0.25% wt/vol in Aquaphor ointment): 1.2 h
duration of action (coolness and cold on skin of the upper lip) ([1]; 0.5% wt/vol in Aquaphor ointment): 1.8 h
duration of action (coolness and cold on skin of the upper lip) ([1]; 1% wt/vol in Aquaphor ointment): 2.4 h
duration of action (coolness and cold on skin of the upper lip) ([1]; 2% wt/vol in Aquaphor ointment): 5.2 h
potency compared to CPS-179, CPS-190 and CPS-192 ([1]; skin of the upper lip): most potent
duration of cooling sensation within the oral cavity (oral cavity; [2]): over 4 hours
quality of cool/cold sensations (oral cavity; [2]): pleasant and not aversive
duration of action (oral cavity; single dose of 2 mg applied to the surface of the tongue or on to the philtrum): ~4 h

COc1ccc(NC(=O)[C@@H]2C[C@H](C)CC[C@H]2C(C)C)cc1 [WS-12, reference compound]
time at which action is dissipated ([1]; 2% preparation): one
time at which duration of action peaks ([1]; 2% preparation): 30 min
sensation elicited on the philtrum and its environs ([1]; applied at 1 to 2%): strong cold sensations
qualitative aspects of sensation (coolness and not cold, duration at least three hours) [1]: sensations of cold, but of brief duration
active concentrations on the TRP-M8 receptor assay (TRP-M8 receptor): sub-micromolar

CC1CCC(C(C)C)C(O)C1 (single isomer, unassigned; (-)) [(−)-menthol, reference compound]
duration of action [1]: less than one

CCOC(=O)CNC(=O)[C@@H]1C[C@H](C)CC[C@H]1C(C)C [WS-5, reference compound]
duration of action [1]: less than one

Reference: patent US20100041757A1, “N-ARYL-HYDROXYALKYLIDENE-CARBOXAMIDE COMPOUNDS AND THEIR USE” (priority 2006, published 2010)
